Several values for one entry are separate records, joined by “and”; a condition that tells them apart may be missing. Equal values may be shown once. Each block holds one compound with its values, some of them ahead of it.
Columns and labels:
[1] = Heparin oral/intracolonic delivery, clotting time by activated partial thromboplastin time (APTT); format: in vivo, Sprague-Dawley rats; conditions: IC (intracolonic), rats; delivery agent compound 50 mg/kg, heparin 25 mg/kg, volume dose 1 ml; baseline about 20 seconds
Experimental: Oral gavage (PO) and/or intracolonic (IC) dosing solutions containing a delivery agent compound and heparin sodium USP were prepared in 25% aqueous propylene glycol. […] This dry mixture was dissolved in 25% v/v aqueous propylene glycol, vortexed, and placed in a sonicator (about 37° C.). The pH was adjusted to about 7 (6.5 to 8.5) with aqueous NaOH (2N). The dosing solution was sonicated to produce a clear solution. The final volume was adjusted to about 3.0 ml.
(§1) The typical dosing and sampling protocols were as follows. […] The dosing solution was expressed slowly into the colon by pressing the syringe plunger.
Citrated blood samples were collected by cardiac puncture following the administration of ketamine (88 mg/kg), typically at 0.25, 0.5, 1.0 and 1.5 hours after dosing. Heparin absorption was verified by an increase in clotting time measured by the activated partial thromboplastin time (APTT) according to the method of Henry, J. B., Clinical Diagnosis and Management by Laboratory Methods, Philadelphia, Pa., W.B. Saunders (1979). Previous studies indicated baseline values of about 20 seconds.

[2] = Recombinant human growth hormone (rhGH) oral delivery, serum rhGH by immunoassay; conditions: oral gavage, rats, volume dose 1 ml
Experimental: Oral gavage (PO) dosing solutions of delivery agent compound and rhGH in phosphate buffer were prepared by mixing. A solution of the delivery agent compound was made either with the sodium salt of the delivery agent compound or by converting the free acid to its sodium salt.
The typical dosing and sampling protocols were as follows. Male Sprague-Dawley rats weighing 200-250 g were fasted for 24 hours and administered ketamine (44 mg/kg) and chlorpromazine (1.5 mg/kg) 15 minutes prior to dosing and again as needed to maintain anesthesia. A dosing group of five animals was administered one of the dosing solutions. An 11 cm Rusch 8 French catheter was adapted to a 1 ml syringe with a pipette tip. The syringe was filled with dosing solution by drawing the solution through the catheter, which was then wiped dry. The catheter was placed down the esophagus leaving 1 cm of tubing past the incisors. The dosing solution was administered by pressing the syringe plunger.
Blood samples were collected serially from the tail artery typically at time=15, 30, 45, 60 and 90 minutes. The five samples from each time period were pooled (except for those samples for which standard deviation (SD) and standard error (SE) are reported). Serum rHGH concentrations were quantified by an rHGH immunoassay test kit (Kit # K1F4015 from Genzyme Corporation Inc., Cambridge, Mass.).

[3] = Salmon calcitonin (sCT) oral delivery, serum sCT by EIA; conditions: rats, delivery agent compound dose 150 mg/kg, sCT dose 30 μg/kg
Experimental: Oral dosing (PO) compositions of a delivery agent compound and salmon calcitonin (sCT) in deionized water were prepared as described in Table 2 below. […] Either the sodium salt of the compound was used or the free acid was converted to the sodium salt by stirring the resultant solution and adding one equivalent of sodium hydroxide (1.0 N) and diluting with water. The solution was vortexed, then heated (about 37° C.) and sonicated. The pH was adjusted to about 7 (about 6.5 to 8.5) with NaOH or HCl. 90 μg sCT from a sCT stock solution (2 mg/ml made by adding 10001 pH 4 phosphate buffer to sCT and allowing it to go into solution by sitting for about 10-20 minutes and periodically gently inverting) was added to the solution.
The typical dosing and sampling protocols were as follows. Male Sprague-Dawley rats weighing between 200-250 g were fasted for 24 hours and administered ketamine (44 mg/kg) and chlorpromazine (1.5 mg/kg) 15 minutes prior to dosing and again as needed to maintain anesthesia. A dosing group of five animals was administered one of the dosing solutions. For oral dosing, an 11 cm Rusch 8 French catheter was adapted to a 1 ml syringe with a pipette tip. The syringe was filled with dosing solution by drawing the solution through the catheter, which was then wiped dry. The catheter was placed down the esophagus leaving 1 cm of tubing past the incisors. Solution was administered by pressing the syringe plunger.
Blood samples were collected serially from the tail artery, typically at time=0, 10, 20, 30, 60 and 90 minutes. […] Numbers were adjusted according to baseline values obtained at time=0. The results from the animals in each dosing group were averaged for each time point.

[4] = Insulin oral delivery, serum human insulin by ELISA; conditions: rats
Experimental: Oral dosing (PO) compositions of delivery agent compound and human zinc insulin (minimum 26 IU/mg available from Calbiochem—Novabiochem Corp, La Jolla, Calif.) were prepared in deionized water. […] The pH was adjusted to about 7 to 8.5 with NaOH or HCl. […] The final delivery agent compound dose, insulin dose and dose volume amounts are listed below in Table 8.
The typical dosing and sampling protocols were as follows.
Serum insulin levels were determined with an Insulin ELISA Test Kit (Kit # DSL-10-1600 from Diagnostic Systems Laboratories, Inc., Webster, Tex.), modifying the standard protocol in order to optimize the sensitivity and linear range of the standard curve for the volumes and concentrations of the samples used in the present protocol. […] The five values for each time point were averaged and the results plotted as serum insulin concentration versus time.

[5] = Low molecular weight heparin (LMWH) oral/intracolonic delivery, plasma LMWH by anti-Factor Xa assay; format: in vivo, Sprague-Dawley rats; conditions: IC, rats, LMWH 750 IU/kg, 1 ml/kg
Experimental: Oral dosing (PO) and/or intracolonic (IC) compositions containing a delivery agent compound and low molecular weight heparin (LMWH) were prepared in 25% aqueous propylene glycol. […] Typically, the delivery agent compound and LMWH (Parnaparin, 91 IU/mg average molecular weight about 5,000, available from Opocrin, Modena, Italy) (typically 90-105 IU/mg, average molecular weight about 5,000) were mixed by vortex as dry powders. This dry mixture was dissolved in 25% v/v aqueous propylene glycol, vortexed, and placed in a sonicator (37° C.) to produce a clear solution. The pH was adjusted to about 7 (6.5-8.5) with 2N aqueous NaOH. The dosing solution was sonicated to produce a clear solution. The final volume was adjusted to 3.0 ml.
as §1
Citrated blood samples were collected by cardiac puncture following the administration of ketamine (88 mg/kg), typically at 0.5, 1.0, 2.0, 3.0 and 4.0 hours after dosing. LMWH absorption was verified by an increase in plasma LMWH measured by the anti-Factor Xa assay CHROMOSTRATE™ Heparin anti-Xa assay (available from Organon Teknika Corporation, Durham, N.C.). […] The peak of these mean plasma LMWH concentrations is reported below in Table 5.

[6] = delivery agent compound 200 mg/kg, rhGH 3 mg/kg
[7] = delivery agent compound 200 mg/kg, insulin 0.5 mg/kg, 1 ml/kg
[8] = delivery agent compound 50 mg/kg
[9] = delivery agent compound 25 mg/kg
[10] = delivery agent compound 100 mg/kg, insulin 3 mg/kg, 0.5 ml/kg
[11] = delivery agent compound 200 mg/kg, insulin 3 mg/kg, 1 ml/kg

Mean Peak Serum [rhGH] [2, 6]: 12.6 ng/mL
Mean Peak Serum sCT (pg/ml ± SD) (SE) ([3]; dose volume 1 (ml), 150 mg/kg): 187 ± 177 pg/mL and 195 ± 436 pg/mL
SMILES: O=C(O)CCCOc1ccccc1O [Compound 4]
Mean Peak APTT ± SD [1]: 40.3 ± 17.8 s and 23.076 ± 4.72 s and 37.148 ± 39.67 s

Mean Peak Serum [rhGH] [2, 6]: 4.88 ng/mL
Mean Peak Serum [INS] ± SD [4, 7]: 13.14 ± 6.81 μU/ml
Mean Peak Serum sCT (pg/ml ± SD) (SE) ([3]; dose volume 2 (ml)): 36 ± 49 pg/mL
SMILES: O=C(O)CCCCCCCCCOc1ccccc1O [Compound 8]
Mean Peak APTT ± SD [1]: 251.94 ± 67.96 s
Mean Peak Serum sCT (pg/ml ± SD) (SE) ([3]; dose volume 1 (ml), 150 mg/kg): 166 ± 190 pg/mL and 194 ± 239 pg/mL and 327 ± 323 pg/mL

Mean Peak Serum [rhGH] [2, 6]: 1 ng/mL
Mean Peak Plasma LMWH Concentration ± SD [5, 8]: 0.474 ± 0.095 IU/ml
SMILES: CC(=O)c1ccccc1OCCCC(=O)O [Compound 9]
Mean Peak APTT ± SD [1]: 21.45 ± 1.71 s

Mean Peak Serum [rhGH] ([2]; delivery agent compound 162 mg/kg, rhGH 2.6 mg/kg): 3.1 ng/mL
Mean Peak Serum [rhGH] [2, 6]: 223 ng/mL
Mean Peak Serum sCT (pg/ml ± SD) (SE) ([3]; dose volume 2 (ml)): 14 ± 4183 pg/mL
SMILES: CC=Cc1ccccc1OCCCCCCCC(=O)O [Compound 18]

Mean Peak Serum [rhGH] [2, 6]: 39.5 ng/mL
Mean Peak Serum [INS] ± SD [4, 7]: 4.32 ± 1.39 μU/ml
Mean Peak Plasma LMWH Concentration ± SD [5, 8]: 0.65 ± 0.37 IU/ml
SMILES: Nc1ccccc1OCCCCCCCC(=O)O [Compound 19]

SMILES: O=C(O)CCCCCCCOc1ccccc1[N+](=O)[O-] [Compound 20]
Mean Peak Serum [rhGH] [2, 6]: 22.6 ng/mL
Mean Peak Serum [INS] ± SD [4, 7]: 27.68 ± 12.5 μU/ml
Mean Peak Serum sCT (pg/ml ± SD) (SE) ([3]; dose volume 1 (ml), 150 mg/kg): 138 ± 107 pg/mL and 85 ± 82 pg/mL and 96 ± 135 pg/mL

Mean Peak Serum [rhGH] [2, 6]: 19.6 ng/mL
Mean Peak Serum [INS] ± SD [4, 7]: 14.46 ± 21.61 μU/ml
SMILES: Nc1ccccc1OCCCCC(=O)O [Compound 21]

Mean Peak Serum [rhGH] [2, 6]: 0 ng/mL
Mean Peak Serum [INS] ± SD [4, 7]: 24.16 ± 28.11 μU/ml
Mean Peak Plasma LMWH Concentration ± SD ([5]; delivery agent compound 10 mg/kg): 0.396 ± 0.153 IU/ml
Mean Peak Plasma LMWH Concentration ± SD [5, 9]: 1.496 ± 0.153 IU/ml
Mean Peak Plasma LMWH Concentration ± SD [5, 8]: 1.842 ± 0.205 IU/ml
SMILES: Nc1cc(Cl)ccc1OCCCCCCCC(=O)O [Compound 22]
Mean Peak APTT ± SD [1]: 287.9 ± 120.1 s

Mean Peak Serum sCT (pg/ml ± SD) (SE) ([3]; dose volume 1 (ml), 150 mg/kg): 161 ± 150 pg/mL and 122 ± 273 pg/mL
SMILES: Nc1cc(Cl)ccc1OCCCCC(=O)O [Compound 23]

SMILES: CC(=O)Nc1ccccc1OCCCCCCCC(=O)O [Compound 24]
Mean Peak Serum [rhGH] [2, 6]: 1.76 ng/mL

Mean Peak Serum [rhGH] [2, 6]: 8.3 ng/mL
Mean Peak Serum [INS] ± SD [4, 10]: 240.5 ± 528.29 μU/ml
Mean Peak Plasma LMWH Concentration ± SD [5, 8]: 0.262 ± 0.106 IU/ml
SMILES: CCC(=O)c1ccccc1OCCCC(=O)O [Compound 26]
Mean Peak APTT ± SD [1]: 76.7 s and 41.534 ± 25.56 s

SMILES: CCC(=O)c1ccccc1OCCCCCC(=O)O [Compound 27]
Mean Peak Serum [rhGH] [2, 6]: 12.9 ng/mL
Mean Peak Serum sCT (pg/ml ± SD) (SE) ([3]; dose volume 1 (ml)): 163 ± 106 pg/mL
Mean Peak Plasma LMWH Concentration ± SD [5, 8]: 1.622 ± 0.265 IU/ml

Mean Peak Serum sCT (pg/ml ± SD) (SE) ([3]; dose volume 1 (ml)): 138 ± 90 pg/mL
Mean Peak Plasma LMWH Concentration ± SD [5, 9]: 1.43 ± 0.31 IU/ml
Mean Peak Plasma LMWH Concentration ± SD [5, 8]: 1.64 ± 0.45 IU/ml
SMILES: CCC(=O)c1ccccc1OCCCCCCCC(=O)O [Compound 28]
Mean Peak APTT ± SD [1]: 143.6 ± 44 s and 251.1 ± 109.34 s

Mean Peak Serum [rhGH] [2, 6]: 0 ng/mL
SMILES: CCC(=O)c1ccccc1OCCCCCCCCCC(=O)O [Compound 29]
Mean Peak APTT ± SD [1]: 105.01 ± 115.28 s and 111.46 ± 108.58 s

Mean Peak Serum [INS] ± SD [4, 7]: 132.3 ± 154.5 μU/ml
SMILES: COc1ccccc1OCCCCCCCC(=O)O [Compound 35]
Mean Peak APTT ± SD [1]: 65.8 ± 35.5 s

Mean Peak Serum [rhGH] [2, 6]: 0 ng/mL
Mean Peak Serum sCT (pg/ml ± SD) (SE) ([3]; dose volume 1 (ml)): 0 ± 62 pg/mL
SMILES: CC(O)c1ccccc1OCCCCCCCC(=O)O (stereo not shown) [Compound 36]

Mean Peak Serum [rhGH] [2, 6]: 29 ng/mL
SMILES: CC(C)(O)c1ccccc1OCc1ccc(C(=O)O)cc1 [Compound 37]

Mean Peak Serum [rhGH] [2, 6]: 0 ng/mL
Mean Peak Serum sCT (pg/ml ± SD) (SE) ([3]; dose volume 1 (ml), 150 mg/kg): 115 ± 120 pg/mL and 115 ± 178 pg/mL
SMILES: COc1cccc(OCCCCCCCC(=O)O)c1C(C)=O [Compound 39]

SMILES: CNC(=O)c1ccccc1OCCCCCCCCCC(=O)O [Compound 51]
Mean Peak APTT ± SD [1]: 92.5 ± 41.5 s

Mean Peak Serum [rhGH] [2, 6]: 0 ng/mL
Mean Peak Serum sCT (pg/ml ± SD) (SE) ([3]; dose volume 1 (ml)): 163 ± 300 pg/mL
SMILES: NC(=O)c1ccccc1OCc1ccc(C(=O)O)cc1 [Compound 52]

Mean Peak Serum [rhGH] [2, 6]: 6.37 ng/mL
Mean Peak Serum sCT (pg/ml ± SD) (SE) ([3]; dose volume 1 (ml)): 34 ± 47 pg/mL
Mean Peak Plasma LMWH Concentration ± SD [5, 8]: 3.046 ± 0.422 IU/ml
SMILES: CC(=O)c1ccccc1OCCCCCCCCCC(=O)O [Compound 54]
Mean Peak APTT ± SD [1]: 31.56 ± 7.54 s

Mean Peak Serum [rhGH] [2, 6]: 12.4 ng/mL
SMILES: COc1ccc(OCCCCCCCC(=O)O)c(C(C)=O)c1 [Compound 55]

Mean Peak Serum [rhGH] [2, 6]: 0 ng/mL
SMILES: COc1ccc(C(C)=O)c(OCCCCCCCC(=O)O)c1 [Compound 56]
Mean Peak Serum sCT (pg/ml ± SD) (SE) ([3]; dose volume 1 (ml), 150 mg/kg): 165 ± 243 pg/mL and 90 ± 125 pg/mL and 113 ± 115 pg/mL and 175 ± 150 pg/mL

Mean Peak Serum [INS] ± SD [4, 7]: 315.53 ± 154.56 μU/ml
SMILES: O=Cc1ccccc1OCc1ccc(C(=O)O)cc1 [Compound 59]

Mean Peak Serum [rhGH] [2, 6]: 1.5 ± 3.3 ng/mL
SMILES: O=Cc1ccccc1OCCCCCC(=O)O [Compound 60]

Mean Peak Serum [rhGH] [2, 6]: 6.2 ng/mL
Mean Peak Serum sCT (pg/ml ± SD) (SE) ([3]; dose volume 1 (ml)): 117 ± 158 pg/mL
SMILES: CC(=O)c1ccc(OCCCCCCCC(=O)O)cc1 [Compound 62]
Mean Peak APTT ± SD [1]: 152.41 ± 136.63 s and 91.204 ± 117.43 s

Mean Peak Serum [rhGH] [2, 6]: 5 ng/mL
Mean Peak Serum sCT (pg/ml ± SD) (SE) ([3]; dose volume 1 (ml)): 138 ± 148 pg/mL
SMILES: CC(=O)c1cccc(OCCCCCCCC(=O)O)c1 [Compound 64]
Mean Peak APTT ± SD [1]: 220.988 ± 122.2 s and 125.372 ± 114.72 s

Mean Peak Serum [rhGH] [2, 6]: 0 ng/mL
Mean Peak Serum sCT (pg/ml ± SD) (SE) ([3]; dose volume 4 (ml)): 109 ± 244 pg/mL
Mean Peak Plasma LMWH Concentration ± SD ([5]; delivery agent compound 50 mg/kg, 50 mg/kg): 0.952 IU/ml and 1.114 ± 0.254 IU/ml
SMILES: O=C(O)c1ccc(COc2ccccc2)cc1 [Compound 66]

Mean Peak Serum [INS] ± SD [4, 11]: 76.23 ± 76.88 μU/ml
SMILES: O=C(O)CCCCCCCOc1cccc(Cl)c1 [Compound 68]

Mean Peak Serum [rhGH] [2, 6]: 28 ng/mL
Mean Peak Serum [INS] ± SD [4, 11]: 4702.5 ± 4700.4 μU/ml
SMILES: O=C(O)CCCCCCCCCCOc1ccccc1O [Compound 72]

Mean Peak Serum [INS] ± SD [4, 10]: 147.66 ± 176.71 μU/ml
SMILES: O=C(O)CCCCCCCOc1ccccc1Cl [Compound 73]

Mean Peak Serum [INS] ± SD [4, 10]: 70.69 ± 127.89 μU/ml
SMILES: O=C(O)CCCCCCCOc1cc([N+](=O)[O-])ccc1O [Compound 74]

SMILES: O=C(O)CCCCOc1ccccc1F [Compound 75]
Mean Peak Serum [INS] ± SD [4, 7]: 33.88 ± 38.49 μU/ml and 32.54 ± 19.78 μU/ml

SMILES: O=C(O)CCCCOc1ccccc1C(F)(F)F [Compound 76]
Mean Peak Serum [INS] ± SD [4, 7]: 24.72 ± 25.53 μU/ml and 38.74 ± 74.4 μU/ml

Mean Peak Serum sCT (pg/ml ± SD) (SE) ([3]; dose volume 1 (ml)): 133 ± 90 pg/mL
SMILES: O=C(O)c1ccc(C(O)COc2ccccc2O)cc1 (stereo not shown) [Compound 79]
